In patent US8119362B2, “Method of screening for compounds that can be used for the treatment of respiratory conditions” (Centre National de la Recherche Scientifique—Cnrs, priority 2007, dated 2012):

Target: T1, human TASK-2 channel (Homo sapiens, UniProt O95279)
T1 construct: expressed in transfected cells; host or cells: HEK cells (Human Embryonic Kidney cells)
T1 sequence (O95279 1-499): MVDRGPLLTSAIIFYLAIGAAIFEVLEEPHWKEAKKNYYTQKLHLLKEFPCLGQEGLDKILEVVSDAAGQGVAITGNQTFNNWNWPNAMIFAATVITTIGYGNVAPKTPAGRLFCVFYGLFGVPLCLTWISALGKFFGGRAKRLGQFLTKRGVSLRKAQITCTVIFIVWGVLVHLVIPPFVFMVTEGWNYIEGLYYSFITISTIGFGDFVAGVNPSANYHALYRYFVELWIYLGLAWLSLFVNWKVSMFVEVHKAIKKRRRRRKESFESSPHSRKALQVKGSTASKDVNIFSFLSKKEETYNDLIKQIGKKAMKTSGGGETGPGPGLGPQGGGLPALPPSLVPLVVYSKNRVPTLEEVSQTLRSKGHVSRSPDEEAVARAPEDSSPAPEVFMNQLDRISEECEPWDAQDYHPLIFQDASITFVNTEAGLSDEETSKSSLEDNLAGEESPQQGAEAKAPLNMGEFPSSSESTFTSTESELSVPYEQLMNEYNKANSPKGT
Assay: Patch-clamp (whole cell) recording of TASK-2 current in transfected HEK cells
Format: cell-based
Conditions: Doxapram at 0.9 mM in the external bath; HEK cells transfected with human TASK-2 (pIRES-CD8-hTASK2); voltage jumps; FIG. 4
Protocol: The following screening is used. HEK cells (Human Embryonic Kidney cells) are transfected with a plasmid containing complementary DNA from the gene of the human TASK-2 channel (pIRES-CD8-hTASK2) by the lipofectamine method. After 24 hours of culture, the TASK-2 currents are recorded using the voltage-clamp method (patch-clamp in whole cell configuration). The currents are activated by jumps in voltage from a rest potential at […] to variable values ranging from −80 to +45 mV.
The currents are recorded in whole cell configuration using an EPC-10 amplifier (HEKA). The <> pipette contains a solution of 95 K-gluconate, 30 mM KCl, 4.8 mM Na2HPO4, 1.2 mM NaH2PO4, 5 mM glucose, 2.38 mM MgCl2, 0.726 mM CaCl2, 1 mM EGTA, 3 mM ATP, pH 7.2. The external solution is a RINGER solution: 145 mM NaCl, 0.4 mM KH2PO4, 1.6 mM K2HPO4, 5 mM glucose, 1 mM MgCl2, 1.3 mM CaCl2, 5 mM HEPES, pH 7.4.
Different drugs may be applied at different concentrations by perfusion of the external bath and their effects are evaluated by the change in the currents compared with the control conditions.

CCN1CC(CCN2CCOCC2)C(c2ccccc2)(c2ccccc2)C1=O (stereo not shown) [Doxapram]
reduction of the TASK-2 current: 25%
